Measured values as given in patent publication US20230143352A1 (Humanetics Corporation, priority 2020, published 2023).

Legend:
[1] = system: radiation-induced edema and fibrosis in the lung; experiment: Mouse model of DEARE-lung: whole thoracic lung irradiation (WTLI) followed by oral genistein suspension; type: in vivo; conditions: WTLI mice
Description: FIG. 1A includes representative images of animal lungs stained with Masson's Trichrome. Images on the left are whole-lung, and images on the right are high magnification (10×). […] Error bars ±SEM.
Animals were treated for two, four, or six weeks.

[2] = system: normal lung tissue (WTLI-irradiated); experiment: A549 mouse xenograft model with WTLI: radioprotection of normal lung tissue; type: in vivo, athymic CD1 nu/nu mice; conditions: A549 xenograft mice
From the text: FIG. 2A is an image of a mouse in which A549 cells were implanted subcutaneously, followed by treatment with 12.5 Gy of radiotherapy (RT). […] The white box indicates the path of radiation, and the circle indicates the tumor site.
Other nonclinical studies focused on protection of the lungs in the context of cancer radiotherapy. A549 lung cancer cells were implanted subcutaneously in athymic CD1 nu/nu mice. The location of the implant was specific, so that a single dose of WTLI would hit the tumor and the normal lung tissue (FIG. 2A). Mice were then administered a nanoparticulate genistein suspension or vehicle control by daily oral gavage for seven days prior to WTLI and continuing until the end of the study.

[3] = system: NF-κB, pro-inflammatory cytokines, pro-fibrotic proteins; conditions: cited from earlier work
SARS-CoV-2 = experiment: K18-hACE2 transgenic mouse model of SARS-CoV-2 infection; type: in vivo
[4] = several pharmaceutically acceptable solvents; cited from earlier work
[5] = system: therapy-induced pneumonitis and pulmonary fibrosis; experiment: Genistein phase 1b/2a trial in NSCLC patients on chemoradiotherapy: toxicity and adverse events; type: in vivo, human
Description: FIGS. 3A and 3B are graphs plotting pulmonary adverse event incidence rates in non-small cell lung cancer (NSCLC) clinical trials.
The drug was added to patients' chemoradiotherapy regimens to reduce the incidence of therapy-induced pneumonitis and pulmonary fibrosis. […] Patients ingested the suspension once daily for one week prior to chemoradiotherapy, and also while on concurrent chemoradiotherapy for a total of six to eight weeks.

[6] = system: radiation-induced fibrosis; conditions: rat RiED model; treatment starting two hours after radiation exposure; cited from earlier work
[7] = daily oral gavage from 7 days before WTLI to end of study
[8] = K18-hACE2 Mouse Study 2, oral BID 7 d

O=c1c(-c2ccc(O)cc2)coc2cc(O)cc(O)c12 [genistein, 5,7-dihydroxy-3-(4-hydroxyphenyl)-4H-chromen-4-one]
immune infiltrate, edema and fibrosis of the lungs (histopathology and wet lung weight) ([1]; daily from 24 hours after irradiation for two, four or six weeks, vs controls): significantly less immune infiltrate, edema, and fibrosis of the lungs
levels of fibrosis (Masson's Trichrome staining, Ashcroft scoring) ([1]; treatment started 24, 72 or 120 hours (within five days) after radiation): reduction in pulmonary fibrosis
wet lung weight (indicator of pneumonitis) ([2]; WTLI, vs vehicle): reduced wet lung weight
congestion and cellular infiltrate, H&E [2, 7]: reduced congestion and minimal cellular infiltrate
normal lung tissue remodeling (thickening of the septal wall), H&E [2, 7]: marked reduction in normal lung tissue remodeling
expression of NF-κB, pro-inflammatory cytokines (IL-1, IL-6, TNFα) and pro-fibrotic proteins (TGFβ, MMP-2, MMP-9, LDH) [3]: reduce expression
lung pathology (SARS-CoV-2; [8]): improved lung pathology
pro-inflammatory cytokine expression (SARS-CoV-2; [8]): reduced pro-inflammatory cytokine expression
survival (SARS-CoV-2; mouse, in vivo, po): increase in survival
solubility [4]: low to virtually no solubility
patients who developed pulmonary fibrosis ([5]; 21 NSCLC patients treated, to date, 9% in historical study): none
occurrences of pulmonary fibrosis one year later ([5]; NSCLC patients, one year later): no occurrences of pulmonary fibrosis
severity of dyspnea ([5]; NSCLC patients, vs historical trial): less severe
fibrosis [6]: significantly reduced fibrosis
